Laboratory results taken from PMC9879287 (Current research in chemical biology, 2022).

Legend:
BTK = BTK (Homo sapiens, UniProt Q06187); assay: Western blotting for BTK in Mino cells; type: cell-based; details: 24 h; for BTK degradation in Mino cells: Western blotting
BTK-nLuc fusion protein = BTK-nLuc fusion protein (Homo sapiens, UniProt Q06187+Q96SW2); assay: BTK-nLuc endpoint degradation assay; type: cell-based; details: HEK-293T cells stably expressing BTK-nLuc, 24 h
His-BTK = His-BTK (Homo sapiens, UniProt Q06187); assay: TR-FRET competition binding assay with BTK-BODIPY tracer; details: 2 h incubation, 150 nM tracer, 2 nM His-BTK
Chain of His-BTK (Q06187 whole entry): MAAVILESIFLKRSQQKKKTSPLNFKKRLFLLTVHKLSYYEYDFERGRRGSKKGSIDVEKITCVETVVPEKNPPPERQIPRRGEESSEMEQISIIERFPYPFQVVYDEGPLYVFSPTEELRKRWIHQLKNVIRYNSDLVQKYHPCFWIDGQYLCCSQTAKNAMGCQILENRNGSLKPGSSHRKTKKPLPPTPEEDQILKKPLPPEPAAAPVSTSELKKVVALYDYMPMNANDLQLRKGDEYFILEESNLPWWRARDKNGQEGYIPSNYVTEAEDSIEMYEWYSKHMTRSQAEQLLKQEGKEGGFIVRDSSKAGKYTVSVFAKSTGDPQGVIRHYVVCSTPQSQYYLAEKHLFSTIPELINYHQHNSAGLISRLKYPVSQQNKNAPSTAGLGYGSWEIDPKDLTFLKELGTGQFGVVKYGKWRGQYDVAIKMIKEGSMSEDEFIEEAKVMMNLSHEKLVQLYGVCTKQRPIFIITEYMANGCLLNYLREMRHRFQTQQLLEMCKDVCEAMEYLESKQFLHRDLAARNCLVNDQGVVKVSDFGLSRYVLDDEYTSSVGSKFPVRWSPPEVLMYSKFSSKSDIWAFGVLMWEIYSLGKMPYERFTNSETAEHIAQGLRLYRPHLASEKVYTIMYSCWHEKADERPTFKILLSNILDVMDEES

MOLM14 cells = assay: Alarma Blue cell viability assay, MOLM14; type: cell-based; details: Homo sapiens, MOLM-14, 72 h, read-out: MOLM14 IC50
IKZF3 = IKZF3 (Homo sapiens, UniProt Q96SW2+Q9UKT9); assay: Western blotting for IKZF3 in Mino cells; type: cell-based; details: at 40 nM; assay not given
Chain of IKZF3 (Q9UKT9 whole entry): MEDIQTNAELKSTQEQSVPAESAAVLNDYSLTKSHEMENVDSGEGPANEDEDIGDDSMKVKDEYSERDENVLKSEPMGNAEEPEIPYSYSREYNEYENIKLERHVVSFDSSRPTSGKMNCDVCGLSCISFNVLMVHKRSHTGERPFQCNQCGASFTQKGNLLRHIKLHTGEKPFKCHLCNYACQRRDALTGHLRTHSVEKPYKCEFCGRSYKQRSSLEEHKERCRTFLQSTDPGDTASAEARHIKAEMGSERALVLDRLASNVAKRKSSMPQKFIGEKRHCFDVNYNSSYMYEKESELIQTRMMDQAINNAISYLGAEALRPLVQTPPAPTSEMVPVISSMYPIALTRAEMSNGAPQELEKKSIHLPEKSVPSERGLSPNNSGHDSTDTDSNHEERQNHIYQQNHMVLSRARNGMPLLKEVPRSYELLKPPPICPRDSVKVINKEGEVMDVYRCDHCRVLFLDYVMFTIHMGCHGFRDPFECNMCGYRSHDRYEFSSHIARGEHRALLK
Chain of IKZF3 (Q96SW2 whole entry): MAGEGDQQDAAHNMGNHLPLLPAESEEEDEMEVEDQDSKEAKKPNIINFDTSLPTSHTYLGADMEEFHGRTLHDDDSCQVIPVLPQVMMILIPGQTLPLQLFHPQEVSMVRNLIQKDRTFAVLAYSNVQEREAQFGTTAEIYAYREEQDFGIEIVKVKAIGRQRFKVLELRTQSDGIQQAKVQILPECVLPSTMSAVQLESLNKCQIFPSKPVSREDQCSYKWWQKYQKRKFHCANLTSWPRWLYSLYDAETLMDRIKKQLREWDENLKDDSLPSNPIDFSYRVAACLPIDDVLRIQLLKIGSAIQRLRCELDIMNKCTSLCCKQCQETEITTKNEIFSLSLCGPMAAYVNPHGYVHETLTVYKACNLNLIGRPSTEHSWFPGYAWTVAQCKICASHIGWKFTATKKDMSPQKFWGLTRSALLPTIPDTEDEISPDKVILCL
Chain of IKZF3 (Q16531 whole entry partner): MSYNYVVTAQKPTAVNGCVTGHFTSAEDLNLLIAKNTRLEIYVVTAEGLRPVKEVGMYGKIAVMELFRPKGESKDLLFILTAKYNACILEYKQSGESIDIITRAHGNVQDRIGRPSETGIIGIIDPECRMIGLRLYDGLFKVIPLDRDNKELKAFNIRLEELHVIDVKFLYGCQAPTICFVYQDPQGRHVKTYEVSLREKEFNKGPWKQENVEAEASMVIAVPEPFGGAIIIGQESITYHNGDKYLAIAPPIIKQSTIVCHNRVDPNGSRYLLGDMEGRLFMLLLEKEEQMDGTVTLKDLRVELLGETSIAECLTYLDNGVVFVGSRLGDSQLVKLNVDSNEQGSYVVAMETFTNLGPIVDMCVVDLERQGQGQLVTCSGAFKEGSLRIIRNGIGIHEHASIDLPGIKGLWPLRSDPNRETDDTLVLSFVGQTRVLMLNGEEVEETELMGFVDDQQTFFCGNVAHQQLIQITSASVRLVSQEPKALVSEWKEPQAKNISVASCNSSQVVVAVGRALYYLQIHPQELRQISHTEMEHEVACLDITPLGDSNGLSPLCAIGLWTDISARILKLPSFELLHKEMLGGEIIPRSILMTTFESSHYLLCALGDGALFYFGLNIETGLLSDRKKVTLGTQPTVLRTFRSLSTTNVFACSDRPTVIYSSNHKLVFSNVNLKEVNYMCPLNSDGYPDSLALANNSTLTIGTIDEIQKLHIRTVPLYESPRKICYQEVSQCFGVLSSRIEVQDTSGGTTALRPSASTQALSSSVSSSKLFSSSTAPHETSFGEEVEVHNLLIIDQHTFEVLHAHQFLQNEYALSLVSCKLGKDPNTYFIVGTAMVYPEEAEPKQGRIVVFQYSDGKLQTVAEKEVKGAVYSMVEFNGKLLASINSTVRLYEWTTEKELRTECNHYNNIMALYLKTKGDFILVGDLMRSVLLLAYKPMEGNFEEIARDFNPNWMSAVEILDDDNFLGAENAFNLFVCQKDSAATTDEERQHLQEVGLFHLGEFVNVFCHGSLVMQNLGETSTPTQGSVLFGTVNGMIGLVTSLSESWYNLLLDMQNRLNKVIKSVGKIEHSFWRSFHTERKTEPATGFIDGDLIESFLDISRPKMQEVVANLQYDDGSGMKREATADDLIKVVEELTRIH

IKZF1 = IKZF1 (Homo sapiens, UniProt Q13422+Q96SW2); assay: Western blotting for IKZF1 in Mino cells; type: cell-based; details: at 200 nM; assay not given
Chain of IKZF1 (Q13422 whole entry): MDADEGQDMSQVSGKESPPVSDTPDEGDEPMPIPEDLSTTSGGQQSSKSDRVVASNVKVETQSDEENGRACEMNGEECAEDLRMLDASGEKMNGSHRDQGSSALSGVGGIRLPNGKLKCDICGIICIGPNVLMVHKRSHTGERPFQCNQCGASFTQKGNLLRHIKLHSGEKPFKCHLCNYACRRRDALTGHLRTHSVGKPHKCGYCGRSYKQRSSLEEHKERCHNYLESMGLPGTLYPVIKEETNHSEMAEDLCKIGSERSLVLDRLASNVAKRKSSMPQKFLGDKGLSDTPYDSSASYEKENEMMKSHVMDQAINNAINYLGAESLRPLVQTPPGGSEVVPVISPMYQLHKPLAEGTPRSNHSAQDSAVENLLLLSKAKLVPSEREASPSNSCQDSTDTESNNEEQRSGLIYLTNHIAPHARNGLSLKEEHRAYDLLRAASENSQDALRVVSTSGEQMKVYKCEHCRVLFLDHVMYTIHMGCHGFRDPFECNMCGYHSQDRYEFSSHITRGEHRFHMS
Chain of IKZF1 (Q96SW2 whole entry): as the sequence (Q96SW2 whole entry) above
Chain of IKZF1 (Q16531 whole entry partner): as the sequence (Q16531 whole entry partner) above

IKZF3-nLuc [1] = molecular target: T1, IKZF3-nLuc (Homo sapiens, UniProt Q96SW2+Q9UKT9); type: cell-based
T1 sequence (Q9UKT9 whole entry): as the sequence (Q9UKT9 whole entry) above
T1 sequence (Q96SW2 whole entry): as the sequence (Q96SW2 whole entry) above
T1 sequence (Q16531 whole entry partner): as the sequence (Q16531 whole entry partner) above

Jeko-1 cells = assay: Alarma Blue cell viability assay, Jeko-1; type: cell-based
IKZF1-nLuc = IKZF1-nLuc (Homo sapiens, UniProt Q13422+Q96SW2); details: other cell line
Chain of IKZF1-nLuc (Q13422 whole entry): as the sequence (Q13422 whole entry) above
Chain of IKZF1-nLuc (Q96SW2 whole entry): as the sequence (Q96SW2 whole entry) above
Chain of IKZF1-nLuc (Q16531 whole entry partner): as the sequence (Q16531 whole entry partner) above

Rec-R cells = assay: Alarma Blue cell viability assay, Rec-R; type: cell-based
Mino cells = assay: cells; type: cell-based; details: Homo sapiens, read-out: Mino IC50
IKZF3-nLuc [2] = molecular target: T1, IKZF3-nLuc; details: other cell line

Chain of BTK (Q06187 whole entry, the tested form may be a part): as the sequence (Q06187 whole entry) above
Chain of BTK-nLuc fusion protein (Q06187 whole entry, the tested form may be a part): as the sequence (Q06187 whole entry) above
Chain of BTK-nLuc fusion protein (Q96SW2 whole entry, the tested form may be a part): as the sequence (Q96SW2 whole entry) above
Chain of BTK-nLuc fusion protein (Q16531 whole entry partner, the tested form may be a part): as the sequence (Q16531 whole entry partner) above

## O=C1CC[C@H](N2Cc3c(OCc4ccc(CN5CCOCC5)cc4)cccc3C2=O)C(=O)N1 [CC220]
BTK
  BTK degradation in Mino cells: In contrast to PS-1, PS-3 and CC-220, PS-2 potently induces BTK degradation

## Cc1c(NC(=O)c2ccc(C(C)(C)C)cc2)cccc1-c1cn(C)c(=O)c(Nc2ccc(C(=O)N3CCN(CCCCCCNC(=O)CNc4cccc5c4C(=O)N(C4CCC(=O)NC4=O)C5=O)CC3)cc2)n1 (centres unmarked) [DD-03-171]
BTK-nLuc fusion protein
  BTK-nLuc Dmax: 96%
BTK-nLuc fusion protein; read-out: BTK-nLuc DC50
  DC50: 25.9 nM
BTK; Mino cells
  BTK WB Dmax: 99%
BTK
  BTK degradation in Mino cells: potently induces BTK degradation

## C=CC(=O)Nc1cccc(Oc2nc(Nc3ccc(N4CCN(C)CC4)cc3)nc3ccoc23)c1 [Poseltinib, poseltinib]
His-BTK
  IC50: 1.21 nM
MOLM14 cells
  IC50: 2900 nM

## Nc1ccc(N2CCN(C(=O)CNc3cccc4c3C(=O)N(C3CCC(=O)NC3=O)C4=O)CC2)cc1 (centres unmarked) [PS-4]
IKZF3
  IKZF3 degradation: do not degrade IKZF3
IKZF1
  IKZF1 degradation: substantial IKZF1 degradation

## CN1CCN(C(=O)CNc2cccc3c2C(=O)N(C2CCC(=O)NC2=O)C3=O)CC1 (centres unmarked) [PS-5]
IKZF3
  IKZF3 degradation: do not degrade IKZF3
IKZF3-nLuc [1]
  IKZF3 degradation in the nLuc assay: appear to be potent IKZF3 degraders
IKZF1
  IKZF1 degradation: less potent

## Nc1cccc2c1C(=O)N(C1CCC(=O)NC1=O)C2=O (centres unmarked) [Pomalidomide, pomalidomide]
Jeko-1 cells
  response of Jeko-1 cells: only Mino cells are responsive
IKZF1-nLuc
  IKZF1 degradation half-life: 4.9 h
Rec-R cells
  response of Rec-R cells: only Mino cells are responsive
Mino cells
  IC50: 329 nM
IKZF3-nLuc [2]
  IKZF3 degradation half-life: 1.9 h
